Assay: Solid-state storage stability of the crystalline form
Format: physicochemical

stability of crystalline form on storage (3 months at 2-8° C.): stable
stability of crystalline form on storage (3 months at 25° C./60% RH): stable
stability of crystalline form on storage (3 months at 40° C./75% RH): stable
Structure (SMILES): CC#CC(=O)N1CCC[C@H]1c1nc(-c2ccc(C(=O)Nc3ccccn3)cc2)c2c(N)nccn12 [form RSV3, acalabrutinib]
